Key:
PGI2 receptor = molecular target: T1, PGI2 receptor (Homo sapiens, UniProt P43119); assay: PGI2 receptor binding/cAMP in HEL cells (in vitro activity grade); settings: compounds of purity about 40 to 90%
T1 construct: host or cells: HEL 92.1.7 human erythroleukemia cells (whole cells)
Procedure: [Measurement of the [^3H]-Iloprost Binding to HEL Cells] (Assay 1) A human erythloleukemia cell line, HEL 92.1.7, was purchased from American Type Culture Correction and maintained in RPMI-1640 medium (Gibco BRL) supplemented with 10% fetal calf serum (FCS), 2 mM glutamine, 4.5 g/L glucose, 10 mM Hepes, 1 mM sodium pyruvate, 100 U/ml penicillin, and 100 μg/ml streptomycin in a humidified 5% CO2 atmosphere at 37° C. Cells were collected with centrifugation and washed with binding assay buffer (BAB: 50 mM Tris-HCl, 5 mM MgCl2 (pH 7.5)). Cells were suspended at the density of 6.25×10^6 cells/ml in BAB, and one million cells in 160 μl aliquot of cell suspension were put in a well of 96 well plate (Falcon). Then, 20 μl of compound solution, 100 μM of iloprost (for non-specific binding), or buffer alone (total binding), diluted with 1% DMSO in BAB was added. Finally, another 20 μl containing [^3H]-iloprost (0.02 μCi, 0.5-1 pmol) in BAB was added and incubated at room temperature for 30 min with a gentle shaking. Cell suspension was then transferred to a well of MultiScreen plate with GF/C glass filters (Millipore) to harvest cells. Cells were washed twice with 200 μl of ice-cold BAB and the plate was kept at 55° C. for 30 min to dry filters. The filter in the well was punched out to a counting tube and 2 ml of Ultima Gold XR Packard) was added. [^3H]-radio activity in the filter was measured by a liquid scintillation counter (Beckman, USA). [Iloprost-Induced cAMP Production Assay in HEL Cells] (Assay 2) HEL cells were collected with centrifugation and washed with cAMP assay buffer (CAB: Hank's balanced salt solution, 17 mM Hepes, 0.1% bovine serum albumin, 1 mM IBMX, 0.4% DMSO, and 1 mM L-ascorbic acid sodium salt (pH 7.4)). Cells were suspended at the density of 2.5×10^5 cells/ml in CAB, and twenty thousand cells in 80 μl aliquot of cell suspension were put in a well of 96 well plate (Falcon). Then, 10 μl of compound solution diluted with 1% DMSO in CAB or buffer alone was added. The plate was incubated at 37° C. for 30 min. Then, another 10 μl containing 100 nM iloprost in CAB or buffer alone was added and further incubated at 37° C. for 30 min. cAMP content in the well was measured by, a cAMP ELISA kit (Applied Biosystems, USA). The data corresponds to the compounds as yielded by solid phase synthesis and thus to levels of purity of about 40 to 90%. For practical reasons, the compounds are grouped in three classes of activity as follows: In vitro activity grade=A≦0.1 μM<B≦1 μM<C

T1 sequence (P43119 whole entry): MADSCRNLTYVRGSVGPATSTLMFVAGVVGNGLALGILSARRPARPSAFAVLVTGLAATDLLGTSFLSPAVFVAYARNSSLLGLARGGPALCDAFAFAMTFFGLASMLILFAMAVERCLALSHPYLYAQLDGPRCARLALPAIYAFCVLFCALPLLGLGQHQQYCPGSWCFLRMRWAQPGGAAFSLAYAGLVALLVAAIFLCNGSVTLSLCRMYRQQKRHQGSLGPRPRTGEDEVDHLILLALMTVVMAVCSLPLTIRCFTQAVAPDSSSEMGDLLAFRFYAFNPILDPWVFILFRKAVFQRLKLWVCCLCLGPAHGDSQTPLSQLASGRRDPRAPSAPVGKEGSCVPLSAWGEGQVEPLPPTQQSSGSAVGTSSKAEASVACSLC

In vitro activity grade (PGI2 receptor): A (A≦0.1 μM)
melting point: 196 to 200 °C
Structure (SMILES): O=C(NC(Cc1ccccc1)C(=O)O)c1cc(-c2ccc(OCc3ccccc3)cc2)[nH]n1 (centres unmarked) [Example 1-1, 2-{[5-(4-Benzyloxyphenyl)-1H-pyrazole-3-carbonyl]amino}-3-phenylpropionic acid]
